Measured values as given in patent publication US20250296953A1, “3,4-THIAZOLO-STEROIDS AND METHODS OF MAKING AND USING THE SAME” (Arkansas State University - Jonesboro, priority 2018, published 2025).
Read-outs that look alike come from different tables or passages of the source.

Columns and labels:
[1] = system: 60 different human tumor cell lines; details: five dose; for CC50: read-out: LC50
[2] = system: gliosarcoma (SF-539); experiment: NCI 60 five dose screen; details: SF-539 (CNS Cancer), five dose
[3] = system: RPMI-8226; experiment: NCI 60 five dose screen; details: RPMI-8226 (Leukemia), five dose
[4] = system: SR; experiment: NCI 60 five dose screen; details: SR (Leukemia), five dose

C[C@]12CCc3nc(Nc4ccc(O)cc4)sc3C1=CC[C@@H]1[C@@H]2CC[C@]2(C)C(=O)CC[C@@H]12 [IIa.35]
GI50 ([1]; SK-MEL-2 (Melanoma)): 6980 nM
TGI ([1]; SK-MEL-2 (Melanoma)): >1.00E−4
GI50 ([1]; SK-MEL-5 (Melanoma)): 4330 nM
TGI ([1]; SK-MEL-5 (Melanoma)): 3.19E−5
GI50 ([1]; SK-MEL-28 (Melanoma)): 2080 nM
TGI ([1]; SK-MEL-28 (Melanoma)): 4.75E−6
GI50 ([1]; SK-OV-3 (Ovarian Cancer)): 12300 nM
TGI ([1]; SK-OV-3 (Ovarian Cancer)): >1.00E−4
GI50 ([1]; SN12C (Renal Cancer)): 2910 nM
TGI ([1]; SN12C (Renal Cancer)): >1.00E−4
GI50 ([1]; SNB-19 (CNS Cancer)): 10900 nM
TGI ([1]; SNB-19 (CNS Cancer)): >1.00E−4
GI50 ([1]; SNB-75 (CNS Cancer)): 2760 nM
TGI ([1]; SNB-75 (CNS Cancer)): >1.00E−4
GI50 ([1]; SW-620 (Colon Cancer)): 2080 nM
TGI ([1]; SW-620 (Colon Cancer)): 4.73E−6
GI50 ([1]; T-47D (Breast Cancer)): 1950 nM
TGI ([1]; T-47D (Breast Cancer)): 5.03E−6
GI50 ([1]; TK-10 (Renal Cancer)): 2010 nM
TGI ([1]; TK-10 (Renal Cancer)): 4.40E−6
GI50 ([1]; U251 (CNS Cancer)): 3060 nM
TGI ([1]; U251 (CNS Cancer)): 2.19E−5
GI50 ([1]; UACC-62 (Melanoma)): 1760 nM
TGI ([1]; UACC-62 (Melanoma)): 4.02E−6
GI50 ([1]; UACC-257 (Melanoma)): 1860 nM
TGI ([1]; UACC-257 (Melanoma)): 4.62E−6
GI50 ([1]; UO-31 (Renal Cancer)): 1540 nM
TGI ([1]; UO-31 (Renal Cancer)): 2.90E−6
CC50 ([1]; A498 (Renal Cancer)): > 100 µM
CC50 ([1]; A549/ATCC (Non-small Cell Lung Cancer)): > 100 µM
CC50 ([1]; ACHN (Renal Cancer)): 36.6 µM
CC50 ([1]; BT-549 (Breast Cancer)): > 100 µM
CC50 ([1]; CCRF-CEM (Leukemia)): > 100 µM
CC50 ([1]; COLO 205 (Colon Cancer)): 7.61 µM
CC50 ([1]; EKVX (Non-small Cell Lung Cancer)): > 100 µM
CC50 ([1]; HCC-2998 (Colon Cancer)): > 100 µM
CC50 ([1]; HCT-15 (Colon Cancer)): > 100 µM
CC50 ([1]; HL-60(TB) (Leukemia)): > 100 µM
CC50 ([1]; HOP-62 (Non-small Cell Lung Cancer)): > 100 µM
CC50 ([1]; HOP-92 (Non-small Cell Lung Cancer)): > 100 µM
CC50 ([1]; HT29 (Colon Cancer)): > 100 µM
CC50 ([1]; IGROV1 (Ovarian Cancer)): > 100 µM
CC50 ([1]; K-562 (Leukemia)): > 100 µM
CC50 ([1]; M14 (Melanoma)): > 100 µM
CC50 ([1]; MALME-3M (Melanoma)): 8.96 µM
CC50 ([1]; MCF7 (Breast Cancer)): > 100 µM
CC50 ([1]; MDA-MB-231/ATCC (Breast Cancer)): > 100 µM
CC50 ([1]; MDA-MB-435 (Melanoma)): > 100 µM
CC50 ([1]; MDA-MB-468 (Breast Cancer)): > 100 µM
CC50 ([1]; MOLT-4 (Leukemia)): > 100 µM
CC50 ([1]; NCI-H23 (Non-small Cell Lung Cancer)): > 100 µM
CC50 ([1]; NCI-H226 (Non-small Cell Lung Cancer)): > 100 µM
CC50 ([1]; NCI-H460 (Non-small Cell Lung Cancer)): > 100 µM
CC50 ([1]; NCI-H522 (Non-small Cell Lung Cancer)): 6.18 µM
CC50 ([1]; NCI/ADR-RES (Ovarian Cancer)): > 100 µM
CC50 ([1]; OVCAR-3 (Ovarian Cancer)): 6.7 µM
CC50 ([1]; OVCAR-4 (Ovarian Cancer)): > 100 µM
CC50 ([1]; OVCAR-5 (Ovarian Cancer)): > 100 µM
CC50 ([1]; OVCAR-8 (Ovarian Cancer)): > 100 µM
CC50 ([1]; PC-3 (Prostate Cancer)): > 100 µM
CC50 ([1]; SF-268 (CNS Cancer)): > 100 µM
CC50 ([1]; SK-MEL-2 (Melanoma)): > 100 µM
CC50 ([1]; SK-MEL-5 (Melanoma)): > 100 µM
CC50 ([1]; SK-MEL-28 (Melanoma)): > 100 µM
CC50 ([1]; SK-OV-3 (Ovarian Cancer)): > 100 µM
CC50 ([1]; SN12C (Renal Cancer)): > 100 µM
CC50 ([1]; SNB-19 (CNS Cancer)): > 100 µM
CC50 ([1]; SNB-75 (CNS Cancer)): > 100 µM
CC50 ([1]; SW-620 (Colon Cancer)): > 100 µM
CC50 ([1]; T-47D (Breast Cancer)): > 100 µM
CC50 ([1]; TK-10 (Renal Cancer)): 9.6 µM
CC50 ([1]; U251 (CNS Cancer)): > 100 µM
CC50 ([1]; UACC-62 (Melanoma)): 9.19 µM
CC50 ([1]; UACC-257 (Melanoma)): > 100 µM
CC50 ([1]; UO-31 (Renal Cancer)): 9.49 µM
GI50 [2]: 1760 nM
TGI [2]: 3.59E−6
CC50 ([2]; read-out: LC50): 7.34 µM
GI50 [3]: 2350 nM
TGI [3]: 7.07E−6
CC50 ([3]; read-out: LC50): > 100 µM
GI50 [4]: 2720 nM
TGI [4]: >1.00E−4
CC50 ([4]; read-out: LC50): > 100 µM
